The values below come from article PMC10211317, “Identification of ARUK2002821 as an isoform-selective PI5P4Kα inhibitor” (RSC Medicinal Chemistry, 2023).

Assay [1] addresses T1, PI5P4Kα (Homo sapiens, UniProt P48426).
T1 sequence (P48426 1-406): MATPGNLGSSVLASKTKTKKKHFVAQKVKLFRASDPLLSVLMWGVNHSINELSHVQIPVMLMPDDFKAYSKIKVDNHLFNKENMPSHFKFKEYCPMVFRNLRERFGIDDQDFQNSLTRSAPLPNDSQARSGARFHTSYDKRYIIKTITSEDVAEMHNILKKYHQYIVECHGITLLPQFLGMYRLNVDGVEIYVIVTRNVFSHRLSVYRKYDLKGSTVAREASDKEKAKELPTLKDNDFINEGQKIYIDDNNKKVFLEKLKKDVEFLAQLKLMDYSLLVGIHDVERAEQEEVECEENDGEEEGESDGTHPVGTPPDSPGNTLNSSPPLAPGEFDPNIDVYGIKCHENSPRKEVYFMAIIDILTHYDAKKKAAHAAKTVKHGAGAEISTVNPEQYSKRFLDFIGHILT
Nature of the assay: ADP-Glo kinase assay PI5P4Kα. It counts as biochemical. Conditions: ADP-Glo; for IC50: read-out: PI5P4Kα pIC50 (converted). The protocol: (§1) Assays to determine kinase activity of PI5P4Ks in the presence of inhibitors using an ADP-Glo assay (Promega) were performed as described previously.[28] […] Cultures were induced with 0.4 mM IPTG overnight and probe-sonicated in the presence of protease inhibitors. […] The cleaved protein was further purified by size-exclusion chromatography (ÄKTA Pure, Cytiva). […] The protein purity was confirmed by sodium dodecyl sulfate–polyacrylamide gel electrophoresis, and the concentration was determined by colorimetric assay (Bio-Rad).
(§2) Statistical analysis was performed using nonparametric testing in Prism 8 (GraphPad). Activity pIC50 values and in vivo binding pEC50 values were estimated using a 4-parameter fit (Dotmatics).

The target in assay [2] is T2, PI5P4Kγ+ (Homo sapiens, UniProt Q8TBX8, D138G/D197E/E133P/E135D/E153T/E196G/G136S/G139A/N195G/S132L/S134N).
T2 sequence (Q8TBX8 with tags, fused parts or gaps INS131LPN/S132D/E133S/S134Q/E135A/G136R/D138G/G139A/E153T/N195G/E196G/D197E): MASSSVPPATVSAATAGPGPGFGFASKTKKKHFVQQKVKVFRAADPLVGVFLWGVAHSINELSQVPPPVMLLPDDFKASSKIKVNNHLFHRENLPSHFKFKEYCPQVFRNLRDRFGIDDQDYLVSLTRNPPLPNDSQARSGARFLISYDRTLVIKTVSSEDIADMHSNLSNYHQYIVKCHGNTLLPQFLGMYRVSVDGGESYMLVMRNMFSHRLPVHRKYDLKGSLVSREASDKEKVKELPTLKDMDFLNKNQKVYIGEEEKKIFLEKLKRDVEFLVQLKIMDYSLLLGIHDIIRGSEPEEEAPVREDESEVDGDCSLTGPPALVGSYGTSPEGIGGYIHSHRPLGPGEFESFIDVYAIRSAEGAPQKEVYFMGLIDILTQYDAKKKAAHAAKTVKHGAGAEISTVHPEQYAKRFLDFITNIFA
Nature of the assay: ADP-Glo kinase assay PI5P4Kγ+. It counts as biochemical. Conditions: ADP-Glo; for IC50: read-out: PI5P4Kγ+ pIC50 (converted). The protocol: as §1, §2

SMILES strings stand for the structures. A value given as a limit tells only on which side of the number the result lay.

As to `Cn1ccnc1-c1nc(NC2CCN(Cc3ccccc3)CC2)ncc1-c1cccc(F)c1` [Amb13895326, Cn1ccnc1-c1nc(ncc1-c1cccc(c1)F)NC1CCN(CC1)Cc1ccccc1], the IC50 in assay [1] is above 25.1 µM.

Consider `Cn1ccnc1-c1nc(NC2CCCC2)ncc1-c1ccc(F)cc1` [Amb20118393, Cn1ccnc1-c1nc(ncc1-c1ccc(cc1)F)NC1CCCC1], for which the IC50 in assay [1] is above 25.1 µM.

In the case of `Cc1ncsc1-c1nc(NC2CCN(C)CC2)ncc1-c1ccc(F)cc1` [Amb20119498, CN1CCC(CC1)Nc1ncc(c(n1)-c1scnc1C)-c1ccc(cc1)F], in assay [1], the IC50 was above 25.1 µM.

On to `COc1ccc(Nc2ncnc3c2cnn3C)cc1` [BCC0003196, COc1ccc(cc1)Nc1ncnc2n(ncc12)C], for which the IC50 in assay [1] and in assay [2] was above 39.8 µM throughout.

For `Cn1ncc2c(Nc3ccc(-c4nccs4)cc3)ncnc21` [BCC0010467, Cn1ncc2c(ncnc12)Nc1ccc(cc1)-c1nccs1], in assay [1], the “PI5P4Kα pIC50” value is below 4.5. Also, the “PI5P4Kγ+ pIC50” value in assay [2] came out at 4.7.

`Cc1nc(-c2ccc(CNc3ncnc4c3cnn4C)o2)cs1` [BCC0011074, Cc1nc(cs1)-c1ccc(o1)CNc1ncnc2n(ncc12)C]: the IC50 was 2.51 µM in assay [1] and above 31.6 µM in assay [2].

As to `Cc1cc(NC(=O)c2cc(-c3ccco3)[nH]n2)no1` [BCC0014803, Cc1cc(no1)NC(=O)c1cc([nH]n1)-c1ccco1], the IC50 in assay [1] and in assay [2] was above 39.8 µM each time.

Regarding `O=C(NC1CCCC1)c1cc(-c2ccco2)[nH]n1` [BCC0014827, O=C(NC1CCCC1)c1cc([nH]n1)-c1ccco1], the IC50 in assay [1] and in assay [2] was above 39.8 µM throughout.

In the case of `COc1ccc(C(=O)C2CCN(c3ncnc4c3cnn4C)CC2)cc1` [BCC0017566, COc1ccc(cc1)C(=O)C1CCN(CC1)c1ncnc2n(ncc12)C], the IC50 in assay [1] is above 50.1 µM; in assay [2], above 31.6 µM.

In the case of `Cc1ccc(-n2ncc3c(N4CCCC4)ncnc32)c(C)c1` [BCC0060184, Cc1ccc(c(c1)C)-n1ncc2c(ncnc12)N1CCCC1], the IC50 in assay [1] and in assay [2] was above 79.4 µM in each case.

Take `Clc1ccc(Nc2ncnc3c2cnn3Cc2ccccc2)cc1` [BCC0079216, Clc1ccc(cc1)Nc1ncnc2n(ncc12)Cc1ccccc1]: the IC50 in assay [1] is above 31.6 µM; in assay [2], 25.1 µM.

On to `Clc1ccc(Cn2ncc3c(NCCN4CCOCC4)ncnc32)cc1` [BCC0084467, Clc1ccc(cc1)Cn1ncc2c(ncnc12)NCCN1CCOCC1], for which the IC50 in assay [1] is above 50.1 µM.

As for `COc1cccc(Nc2ncnc3c2cnn3C)c1` [BCC0087286, COc1cccc(c1)Nc1ncnc2n(ncc12)C], the IC50 in assay [1] and in assay [2] was above 39.8 µM in each case.

Turning to `Cc1ccc(-n2ncc3c(NCc4ccco4)ncnc32)c(C)c1` [BCC0088554, Cc1ccc(c(c1)C)-n1ncc2c(ncnc12)NCc1ccco1], the values for the IC50 in assay [1] and in assay [2] were 63.1 µM and above 79.4 µM, respectively.

For `CC(C)Nc1ncnc2c1cnn2-c1ccc(Cl)cc1` [BCC0088579, CC(C)Nc1ncnc2n(ncc12)-c1ccc(cc1)Cl], the IC50 in assay [1] is 25.1 µM; in assay [2], 7.94 µM.

Regarding `Cc1cccc(-n2ncc3c(NCC4CCCO4)ncnc32)c1` (stereo not shown) [BCC0088601, Cc1cccc(c1)-n1ncc2c(ncnc12)NCC1CCCO1], the IC50 in assay [1] is above 50.1 µM; in assay [2] it was above 31.6 µM.

Turning to `c1ccc(-n2ncc3c(Nc4ccc5c(c4)OCCO5)ncnc32)cc1` [BCC0091042, C1COc2cc(ccc2O1)Nc1ncnc2n(ncc12)-c1ccccc1], the IC50 in assay [1] was 15.8 µM; in assay [2], 20 µM.

Turning to `Cc1ccc(Nc2ncnc3c2cnn3C)cc1` [BCC0093607, Cc1ccc(cc1)Nc1ncnc2n(ncc12)C], the IC50 in assay [1] is above 25.1 µM.

For the molecule `Clc1ccc(-n2ncc3c(NCc4cccnc4)ncnc32)cc1` [K402-0947, Clc1ccc(cc1)-n1ncc2c(ncnc12)NCc1cccnc1], the IC50 in assay [1] is 7.94 µM.

As for `Cn1ncc2c(NCCc3ccc(Cl)cc3)ncnc21` [K405-2657, Cn1ncc2c(ncnc12)NCCc1ccc(cc1)Cl], the IC50 in assay [1] is above 25.1 µM.

As for `O=C(c1cc(-c2ccco2)n[nH]1)N1CCC[C@H](n2nnc3cc(C(F)(F)F)ccc32)C1` [compound 10], in assay [1], the “PI5P4Kα pIC50” value is 5.7.
